In patent US12630534B2 (TAKEDA PHARMACEUTICAL COMPANY LIMITED, priority 2020, dated 2026):

Target: T1, human GPR139 (Homo sapiens, UniProt Q6DWJ6)
T1 construct: expressed in transfected cells; host or cells: CHO-TREx (Life Technologies) cells, expression induced with doxycycline
T1 sequence (Q6DWJ6 1-353): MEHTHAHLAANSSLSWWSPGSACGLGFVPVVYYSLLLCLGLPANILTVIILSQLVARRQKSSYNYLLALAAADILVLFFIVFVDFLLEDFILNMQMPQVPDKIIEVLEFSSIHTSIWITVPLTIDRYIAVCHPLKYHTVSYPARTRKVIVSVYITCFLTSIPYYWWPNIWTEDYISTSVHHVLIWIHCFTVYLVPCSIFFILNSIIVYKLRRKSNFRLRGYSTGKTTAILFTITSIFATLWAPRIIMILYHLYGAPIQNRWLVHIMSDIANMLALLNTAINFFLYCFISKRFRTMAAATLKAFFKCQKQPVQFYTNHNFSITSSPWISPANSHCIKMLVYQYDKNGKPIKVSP
Assay: Inhibition rate of the amount of IP1 in GPR139-expressed CHO cells (inverse agonist assay, Test Example 2)
Assay type: cell-based
Conditions: relative value, inhibition rate of Example Compound 2 in Test Example 1 defined as 100%; for inhibition at 30 µM: CHO
In short: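 CHO-TREx cells with doxycycline-inducible human GPR139 (2 μg/mL, 17 h) were incubated with compound at 2000 cells/well for 40 min at 37° C. IP1 quantified by HTRF (665/615 nm ratio ×10000); inhibition rate expressed relative to a reference compound defined as […].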

Row | SMILES | inhibition at 30 µM | further results
1 | CCn1cc(Cn2ccn(-c3cc(-c4ccc(F)cc4)cc(C4CC4(F)F)c3F)c2=O)cn1 (centres unmarked) [Example 145, 1-[5-(2,2-difluorocyclopropyl)-4,4′-difluoro[1,1′-biphenyl]-3-yl]-3-[(1-ethyl-1H-pyrazol-4-yl)methyl]-1,3-dihydro-2H-imidazol-2-one] |  | Inhibition Rate at 30 μM (30 µM): 102%
2 | CCn1cc(Cn2ccn(-c3cc(N4CCOC(C)(C)C4)cc(Br)c3F)c2=O)cn1 [Example 146, 1-[3-bromo-5-(2,2-dimethylmorpholin-4-yl)-2-fluorophenyl]-3-[(1-ethyl-1H-pyrazol-4-yl)methyl]-1,3-dihydro-2H-imidazol-2-one] | 103% | 
3 | CCn1cc(Cn2cc(C)n(-c3cc(C4CC4)cc(N4CCOC(C)(C)C4)c3)c2=O)cn1 [Example 147, 3-[3-cyclopropyl-5-(2,2-dimethylmorpholin-4-yl)phenyl]-1-[(1-ethyl-1H-pyrazol-4-yl)methyl]-4-methyl-1,3-dihydro-2H-imidazol-2-one] | 100% | 
4 | Cc1cn(Cc2cnn(C(C)C)c2)c(=O)n1-c1cc(C(F)(F)F)cc(OC[C@@H]2CCCO2)n1 [Example 148, 4-methyl-3-[6-{[(2S)-oxolan-2-yl]methoxy}-4-(trifluoromethyl)pyridin-2-yl]-1-{[1-(propan-2-yl)-1H-pyrazol-4-yl]methyl}-1,3-dihydro-2H-imidazol-2-one] | 101% | 
5 | CCn1cc(Cn2cc(C)n(-c3cc(C(F)(F)F)c(F)c(N4CCO[C@H](C)C4)n3)c2=O)cn1 [Example 149, 1-[(1-ethyl-1H-pyrazol-4-yl)methyl]-3-{5-fluoro-6-[(2R)-2-methylmorpholin-4-yl]-4-(trifluoromethyl)pyridin-2-yl}-4-methyl-1,3-dihydro-2H-imidazol-2-one] | 101% | 
6 | CCn1cc(Cn2c(C)c(C)n(-c3cc(C(F)(F)F)c(F)c(N4CCO[C@H](C)C4)n3)c2=O)cn1 [Example 150, 1-[(1-ethyl-1H-pyrazol-4-yl)methyl]-3-{5-fluoro-6-[(2R)-2-methylmorpholin-4-yl]-4-(trifluoromethyl)pyridin-2-yl}-4,5-dimethyl-1,3-dihydro-2H-imidazol-2-one] | 101% | 
7 | CCn1cc(Cn2cnn(-c3cc(OCC4CC(F)(F)C4)cc(C(F)(F)F)c3F)c2=O)cn1 [Example 151, 2-{5-[(3,3-difluorocyclobutyl)methoxy]-2-fluoro-3-(trifluoromethyl)phenyl}-4-[(1-ethyl-1H-pyrazol-4-yl)methyl]-2,4-dihydro-3H-1,2,4-triazol-3-one] | 98% | 
8 | CCn1cc(Cn2ccn(-c3cc(N4CCC(F)(F)CC4)cc(N4CCC(F)(F)CC4)c3F)c2=O)cn1 [Example 152, 1-[3,5-bis(4,4-difluoropiperidin-1-yl)-2-fluorophenyl]-3-[(1-ethyl-1H-pyrazol-4-yl)methyl]-1,3-dihydro-2H-imidazol-2-one] | 98% | 
9 | CCn1cc(Cn2ccn(-c3cc(N4CCO[C@H](C)C4)cc(OC(F)(F)F)c3F)c2=O)cn1 [Example 153, 1-[(1-ethyl-1H-pyrazol-4-yl)methyl]-3-{2-fluoro-5-[(2R)-2-methylmorpholin-4-yl]-3-(trifluoromethoxy)phenyl}-1,3-dihydro-2H-imidazol-2-one] | 100% | 
10 | CCn1cc(Cn2c(C)nn(-c3cc(C(F)(F)F)c(F)c(N4CCC(F)(F)CC4)n3)c2=O)cn1 [Example 154, 2-[6-(4,4-difluoropiperidin-1-yl)-5-fluoro-4-(trifluoromethyl)pyridin-2-yl]-4-[(1-ethyl-1H-pyrazol-4-yl)methyl]-5-methyl-2,4-dihydro-3H-1,2,4-triazol-3-one] | 98% | 
11 | CCn1cc(Cn2c(Cl)nn(-c3cc(N4CCO[C@H](C)C4)cc(C(F)(F)F)c3F)c2=O)cn1 [Example 155, 5-chloro-4-[(1-ethyl-1H-pyrazol-4-yl)methyl]-2-{2-fluoro-5-[(2R)-2-methylmorpholin-4-yl]-3-(trifluoromethyl)phenyl}-2,4-dihydro-3H-1,2,4-triazol-3-one] | 101% | 
12 | CCn1cc(Cn2ccn(-c3cc(N4CCC(F)(F)CC4)cc(C4CC4(F)F)c3F)c2=O)cn1 (centres unmarked) [Example 156, 1-[3-(2,2-difluorocyclopropyl)-5-(4,4-difluoropiperidin-1-yl)-2-fluorophenyl]-3-[(1-ethyl-1H-pyrazol-4-yl)methyl]-1,3-dihydro-2H-imidazol-2-one] | 98% | 
13 | CCc1cn(Cc2cnn(CC)c2)c(=O)n1-c1cc(C(F)(F)F)cc(N2CCO[C@H](C)C2)n1 [Example 157, 4-ethyl-1-[(1-ethyl-1H-pyrazol-4-yl)methyl]-3-{6-[(2R)-2-methylmorpholin-4-yl]-4-(trifluoromethyl)pyridin-2-yl}-1,3-dihydro-2H-imidazol-2-one] | 101% | 
14 | CCn1cc(Cn2ccn(-c3cc(N4CCC(F)(F)CC4)cc(C4CC4(F)F)c3F)c2=O)cn1 (centres unmarked) [Example 158, 1-[3-(2,2-difluorocyclopropyl)-5-(4,4-difluoropiperidin-1-yl)-2-fluorophenyl]-3-[(1-ethyl-1H-pyrazol-4-yl)methyl]-1,3-dihydro-2H-imidazol-2-one] |  | Inhibition Rate at 30 μM: 98%
15 | Cc1nn(-c2cc(N3CCO[C@H](C)C3)cc(OC(F)(F)F)c2F)c(=O)n1Cc1cnn(C(C)C)c1 [Example 159, 2-{2-fluoro-5-[(2R)-2-methylmorpholin-4-yl]-3-(trifluoromethoxy)phenyl}-5-methyl-4-{[1-(propan-2-yl)-1H-pyrazol-4-yl]methyl}-2,4-dihydro-3H-1,2,4-triazol-3-one] | 99% | 
16 | CCn1cc(Cn2cc(C)n(-c3cc(C4CC4)c(F)c(N4CCO[C@H](C)C4)c3)c2=O)cn1 [Example 160, 3-{3-cyclopropyl-4-fluoro-5-[(2R)-2-methylmorpholin-4-yl]phenyl}-1-[(1-ethyl-1H-pyrazol-4-yl)methyl]-4-methyl-1,3-dihydro-2H-imidazol-2-one] | 98% | 
17 | CCn1cc(Cn2c(C)nn(-c3cc(N4CCC(F)(F)CC4)cc(C(F)(F)F)c3C)c2=O)cn1 [Example 161, 2-[5-(4,4-difluoropiperidin-1-yl)-2-methyl-3-(trifluoromethyl)phenyl]-4-[(1-ethyl-1H-pyrazol-4-yl)methyl]-5-methyl-2,4-dihydro-3H-1,2,4-triazol-3-one] | 100% | 
18 | CCn1cc(Cn2c(C)c(C)n(-c3cc(C4CC4)cc(N4CCO[C@H](C)C4)n3)c2=O)cn1 [Example 162, 1-{4-cyclopropyl-6-[(2R)-2-methylmorpholin-4-yl]pyridin-2-yl}-3-[(1-ethyl-1H-pyrazol-4-yl)methyl]-4,5-dimethyl-1,3-dihydro-2H-imidazol-2-one] | 101% | 
19 | CCn1cc(Cn2c(C)c(C)n(-c3cccc(N4CCO[C@H](C)C4)n3)c2=O)cn1 [Example 163, 1-[(1-ethyl-1H-pyrazol-4-yl)methyl]-4,5-dimethyl-3-{6-[(2R)-2-methylmorpholin-4-yl]pyridin-2-yl}-1,3-dihydro-2H-imidazol-2-one] | 96% | 
20 | CCn1cc(Cn2c(C)cn(-c3cc(N4CCOC(C)(C)C4)cc(C4CC4)c3F)c2=O)cn1 [Example 164, 1-[3-cyclopropyl-5-(2,2-dimethylmorpholin-4-yl)-2-fluorophenyl]-3-[(1-ethyl-1H-pyrazol-4-yl)methyl]-4-methyl-1,3-dihydro-2H-imidazol-2-one] | 97% | 
21 | CCn1cc(Cn2c(C)cn(-c3cc(N4CCC(F)(F)CC4)cc(C4CC4)c3F)c2=O)cn1 [Example 165, 1-[3-cyclopropyl-5-(4,4-difluoropiperidin-1-yl)-2-fluorophenyl]-3-[(1-ethyl-1H-pyrazol-4-yl)methyl]-4-methyl-1,3-dihydro-2H-imidazol-2-one] | 97% | 
22 | CCn1cc(Cn2c(C)cn(-c3cc(N4CCOC(C)(C)C4)cc(Cl)c3F)c2=O)cn1 [Example 166, 1-[3-chloro-5-(2,2-dimethylmorpholin-4-yl)-2-fluorophenyl]-3-[(1-ethyl-1H-pyrazol-4-yl)methyl]-4-methyl-1,3-dihydro-2H-imidazol-2-one] | 98% | 
23 | CCn1cc(Cn2c(C)cn(-c3cc(N4CCC(F)(F)CC4)cc(Cl)c3F)c2=O)cn1 [Example 167, 1-[3-chloro-5-(4,4-difluoropiperidin-1-yl)-2-fluorophenyl]-3-[(1-ethyl-1H-pyrazol-4-yl)methyl]-4-methyl-1,3-dihydro-2H-imidazol-2-one] | 97% | 
